From patent US20250109504A1, “HETEROCYCLIC NON-TRIAZOLE COMPOUNDS AND METHODS FOR INHIBITING CORROSION IN INDUSTRIAL WATER TREATMENT” (CHEMTREAT, INC., priority 2023, published 2025)

Tests used:
[1] = LPR corrosion test of copper coupons in synthetic water with free chlorine (Gamry corrosion cell); conditions: for deterioration in corrosion resistance when free chlorine is added: FAC 1 ppm after 1 hr
Description: Several classes of compounds at various concentrations were tested to determine their potential to inhibit corrosion of copper alloy in aqueous systems as shown in Table 1 below.
1 liter samples of synthetic water were each dosed with 5 ppm of a different glucamide compound (A, B, C, D) according to Formula (I) above and 50 ppm of a standard scale inhibitor. Another 1 liter sample of synthetic water was dosed with 4 ppm of tolyltriazole and 50 ppm of the standard scale inhibitor product.
The apparatus used for the corrosion testing was a Gamry Multiport Corrosion Cell and Gamry Reference 600+ potentiostat with multiplexor. Copper coupons (CDA110) were added to the sample cells, and the cells were heated to 50° C. and maintained at this temperature throughout the testing. The cells were continuously stirred at a speed of 350 rpm. A cylindrical working electrode was submerged into the test solutions, and an LPR sweep (linear polarization resistance) was performed every hour for 18 hours. After the one hour mark, 1 ppm of free chlorine was dosed into the corrosion cell.

[2] = Solubility in sodium hydroxide (NaOH); format: physicochemical; conditions: solubilized in sodium hydroxide (NaOH)
Source text: Moreover, conventional treatment methods involve solubilizing corrosion inhibitors in sodium hydroxide (NaOH). Solubility of benzimidazoles and polymeric acids such as 4,5-imidazoledicarboxylic acid in NaOH is low, i.e., less than 2%. […] These and other issues are addressed by the present disclosure.

Molecule	corrosion inhibition properties (corrosion rates, FIG. 1) as compared to the triazole inhibitors ([1]; Example 1, IMDCC 5, 2.5, 1 ppm vs HST 0.5/0.25/0.1 ppm and TTA 0.5 ppm, CDA110, 50° C., entire 18 hour period)	deterioration in corrosion resistance when free chlorine is added ([1]; Example 1, IMDCC 5, 2.5, 1 ppm, CDA110, 50° C.)	corrosion inhibition properties (corrosion rates, FIG. 2) as compared to the triazole inhibitors ([1]; Example 2, IMDCC 1 ppm, CT1 + IMDCC 100 ppm + 1 ppm vs HST 0.5 ppm, CDA110, 50° C., entire 18 hour period)	deterioration in corrosion resistance when free chlorine is added ([1]; Example 2, IMDCC 1 ppm, CT1 + IMDCC 100 ppm + 1 ppm, unlike the CT1 inhibitor)	corrosion inhibition properties (corrosion rates, FIG. 3) as compared to the triazole inhibitors ([1]; Example 3, IMDCC 2.0, 1 ppm, HST + IMDCC 0.10+0.90 to 0.90+0.10 ppm vs HST 1/0.5/0.25 ppm, CDA110, 50° C., entire 18 hour period)	deterioration in corrosion resistance when free chlorine is added ([1]; Example 3, IMDCC 2.0, 1 ppm, HST + IMDCC 0.10+0.90 to 0.90+0.10 ppm)	corrosion inhibition properties (corrosion rates, FIG. 4) as compared to the triazole inhibitors ([1]; Example 4, IMDCC 2.0, 1 ppm, CT2 + IMDCC 50 ppm + 1 ppm, 25 ppm + 2 ppm, CDA110, 50° C., entire 18 hour period)	deterioration in corrosion resistance when free chlorine is added ([1]; Example 4, IMDCC 2.0, 1 ppm, CT2 + IMDCC 50 ppm + 1 ppm, 25 ppm + 2 ppm, unlike the CT2 inhibitor)	Solubility in NaOH [2]
Imidazole dicarboxylate [IMDCC]	superior corrosion inhibition properties	do not exhibit any substantial deterioration	superior corrosion inhibition properties	do not exhibit any substantial deterioration	superior corrosion inhibition properties	do not exhibit any substantial deterioration	superior corrosion inhibition properties	do not exhibit any substantial deterioration	–
O=C(O)c1nc[nH]c1C(=O)O [4,5-imidazoledicarboxylic acid]	–	–	–	–	–	–	–	–	less than 2%
